In ChEMBL document CHEMBL1201862, “PubChem BioAssay data set” (2004):
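Briefly, cells in 96-well plates were exposed to five compound concentrations for 48 h, and endpoints were estimated by linear interpolation. GI50 marks 50% less growth.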 The source made the active and inactive calls. Cut-off read from the data, not from the text of the source: active = GI50 up to about 1.1 µM and inactive = higher.

What was measured:
Test in all cases: NCI tumour cell line growth inhibition, 48 h
A549 = test system: A549
CAKI-1 = test system: CAKI-1
HCC 2998 = test system: HCC 2998
HOP-62 = test system: HOP-62
K562 = test system: K562
M14 = test system: M14
MCF7 = test system: MCF7
MDA-MB-231 = test system: MDA-MB-231
NCI-H522 = test system: NCI-H522
OVCAR-5 = test system: OVCAR-5
PC-3 = test system: PC-3
SF-268 = test system: SF-268
SK-MEL-28 = test system: SK-MEL-28
SK-MEL-5 = test system: SK-MEL-5
SR = test system: SR
SW-620 = test system: SW-620
IGROV-1 = test system: IGROV-1
UACC-257 = test system: UACC-257
Hs-578T = test system: Hs-578T

Measured: GI50

CCOC1=NC(O)c2cccn2-c2sccc21 (stereo unspecified)
inactive: A549 43.2 µM | CAKI-1 > 100 µM | HCC 2998 > 100 µM | HOP-62 > 100 µM | K562 57.8 µM | M14 > 100 µM | MCF7 > 100 µM | MDA-MB-231 > 100 µM | NCI-H522 > 100 µM | OVCAR-5 > 100 µM | PC-3 > 100 µM | SF-268 > 100 µM | SK-MEL-28 > 100 µM | SK-MEL-5 96.4 µM | SR 34.2 µM | SW-620 > 100 µM

Cc1ccc(Cc2nn(C)c(=O)n2N)cc1
inactive: A549 > 100 µM | CAKI-1 > 100 µM | HCC 2998 > 100 µM | IGROV-1 > 100 µM | K562 > 100 µM | M14 > 100 µM | MCF7 > 100 µM | MDA-MB-231 > 100 µM | OVCAR-5 > 100 µM | PC-3 > 100 µM | SK-MEL-28 > 100 µM | SK-MEL-5 > 100 µM | SW-620 > 100 µM | UACC-257 > 100 µM

CC1CC[C@@H](C(C)C)[C@H](Oc2nnc(C3OC(CO)C(O)C3O)o2)C1 (stereo partly specified)
inactive: A549 > 100 µM | CAKI-1 > 100 µM | HCC 2998 > 100 µM | HOP-62 > 100 µM | K562 > 100 µM | MCF7 > 100 µM | MDA-MB-231 > 100 µM | OVCAR-5 > 100 µM | PC-3 > 100 µM | SF-268 > 100 µM | SK-MEL-5 > 100 µM | SW-620 > 100 µM | UACC-257 > 100 µM

NS(=O)(=O)c1cc2c(cc1Cl)NC(C(=O)c1cc(=O)c3ccc(O)cc3o1)=NS2(=O)=O
inactive: A549 > 100 µM | CAKI-1 > 100 µM | HCC 2998 > 100 µM | HOP-62 > 100 µM | IGROV-1 > 100 µM | K562 > 100 µM | M14 > 100 µM | NCI-H522 > 100 µM | OVCAR-5 > 100 µM | SF-268 > 100 µM | SK-MEL-28 > 100 µM | SK-MEL-5 > 100 µM | SR > 100 µM | SW-620 > 100 µM | UACC-257 > 100 µM

COC(=O)c1sc2ncc3c(c2c1N)CCCCCC3
inactive: A549 > 100 µM | CAKI-1 > 100 µM | HCC 2998 > 100 µM | HOP-62 53.6 µM | IGROV-1 > 100 µM | K562 > 100 µM | M14 > 100 µM | MCF7 > 100 µM | MDA-MB-231 > 100 µM | NCI-H522 > 100 µM | OVCAR-5 > 100 µM | PC-3 > 100 µM | SF-268 > 100 µM | SK-MEL-28 > 100 µM | SK-MEL-5 > 100 µM | SR > 100 µM | SW-620 > 100 µM | UACC-257 > 100 µM

COC(=O)C(=O)c1cc2ccccc2n1S(=O)(=O)c1ccccc1
inactive: A549 > 100 µM | CAKI-1 > 100 µM | HCC 2998 > 100 µM | HOP-62 > 100 µM | IGROV-1 > 100 µM | K562 > 100 µM | M14 > 100 µM | MCF7 > 100 µM | MDA-MB-231 > 100 µM | NCI-H522 > 100 µM | OVCAR-5 > 100 µM | PC-3 > 100 µM | SF-268 > 100 µM | SK-MEL-28 > 100 µM | SK-MEL-5 > 100 µM | SR > 100 µM | SW-620 > 100 µM | UACC-257 > 100 µM

N#Cc1c(-c2cccc(Br)c2)cc(-c2ccc(Cl)cc2)nc1N
inactive: A549 21 µM | CAKI-1 25.6 µM | HCC 2998 17.3 µM | HOP-62 23.5 µM | Hs-578T 19.1 µM | IGROV-1 14 µM | K562 25.6 µM | M14 20.7 µM | MCF7 26.2 µM | NCI-H522 14.1 µM | OVCAR-5 25.5 µM | PC-3 22.2 µM | SF-268 24.8 µM | SK-MEL-5 15.2 µM | SR 19.1 µM | SW-620 18.2 µM | UACC-257 17.3 µM

N#Cc1nc2cc(Cl)ccc2nc1N1CCN(c2ccc([N+](=O)[O-])cc2)CC1
inactive: A549 > 100 µM | CAKI-1 > 100 µM | HCC 2998 18.9 µM | HOP-62 > 100 µM | Hs-578T > 100 µM | K562 > 100 µM | M14 > 100 µM | MCF7 > 100 µM | MDA-MB-231 > 100 µM | OVCAR-5 > 100 µM | PC-3 > 100 µM | SF-268 > 100 µM | SK-MEL-28 > 100 µM | SK-MEL-5 > 100 µM | SW-620 > 100 µM | UACC-257 > 100 µM

COC(=O)C1C2CC3C1C3C2C(=O)OC (stereo unspecified)
inactive: A549 > 100 µM | CAKI-1 > 100 µM | HCC 2998 > 100 µM | HOP-62 > 100 µM | Hs-578T > 100 µM | IGROV-1 > 100 µM | K562 > 100 µM | M14 > 100 µM | MCF7 > 100 µM | MDA-MB-231 > 100 µM | NCI-H522 > 100 µM | OVCAR-5 > 100 µM | PC-3 > 100 µM | SF-268 > 100 µM | SK-MEL-28 > 100 µM | SK-MEL-5 > 100 µM | SW-620 > 100 µM | UACC-257 > 100 µM

CCOC(=O)c1cc2cc(Cc3ccc4[nH]c(C(=O)OCC)cc4c3)ccc2[nH]1
inactive: CAKI-1 12 µM | HCC 2998 91.6 µM | HOP-62 5.14 µM | Hs-578T 12.6 µM | IGROV-1 15.4 µM | K562 21.9 µM | M14 > 100 µM | MCF7 52.4 µM | MDA-MB-231 15.5 µM | OVCAR-5 > 100 µM | PC-3 34.3 µM | SF-268 13.5 µM | SK-MEL-28 29.4 µM | SR 41.3 µM | SW-620 63.5 µM | UACC-257 43.6 µM

COC(=O)CSc1cc(Cl)c(C)cc1S(=O)(=O)Nc1n[nH]c(N)n1
inactive: A549 > 10 µM | CAKI-1 > 10 µM | HCC 2998 > 10 µM | HOP-62 > 10 µM | Hs-578T > 10 µM | IGROV-1 > 10 µM | K562 > 10 µM | M14 > 10 µM | MCF7 > 10 µM | NCI-H522 > 10 µM | OVCAR-5 > 10 µM | PC-3 > 10 µM | SF-268 > 10 µM | SK-MEL-28 > 10 µM | SK-MEL-5 > 10 µM | SR > 10 µM | SW-620 > 10 µM | UACC-257 > 10 µM

Cc1occc1/C(S)=N\c1ccc(Cl)c(C(=O)OCC2CC2)c1
inactive: A549 > 100 µM | CAKI-1 5.81 µM | HCC 2998 26.7 µM | Hs-578T 46.9 µM | IGROV-1 37.3 µM | K562 18.8 µM | M14 85.5 µM | MCF7 38.5 µM | MDA-MB-231 37.8 µM | NCI-H522 21.9 µM | OVCAR-5 > 100 µM | PC-3 30.4 µM | SF-268 36.1 µM | SK-MEL-28 72.6 µM | SK-MEL-5 41.2 µM | SW-620 54.7 µM | UACC-257 22.3 µM

OC1[C@@H]2[C@@H](O)[C@H](O)[C@@H](O)N2C[C@@H]1O (stereo partly specified)
inactive: A549 > 100 µM | CAKI-1 > 100 µM | HCC 2998 > 100 µM | HOP-62 > 100 µM | Hs-578T > 100 µM | IGROV-1 > 100 µM | K562 > 100 µM | M14 > 100 µM | MCF7 > 100 µM | MDA-MB-231 > 100 µM | NCI-H522 > 100 µM | OVCAR-5 > 100 µM | PC-3 > 100 µM | SF-268 > 100 µM | SK-MEL-28 > 100 µM | SK-MEL-5 > 100 µM | SW-620 > 100 µM | UACC-257 > 100 µM

O=C1CCCCC/C1=C\c1cccc(F)c1
inactive: A549 > 100 µM | CAKI-1 65.9 µM | HCC 2998 59.8 µM | HOP-62 > 100 µM | IGROV-1 58.9 µM | K562 49.5 µM | M14 43.4 µM | MCF7 64.9 µM | MDA-MB-231 > 100 µM | OVCAR-5 > 100 µM | PC-3 > 100 µM | SF-268 82.4 µM | SK-MEL-28 > 100 µM | SK-MEL-5 66.7 µM | SR 13.5 µM | SW-620 83.8 µM | UACC-257 59 µM

COC(=O)c1c(C)[nH]c2c1C(=O)C(=O)c1nc(C)c(C)nc1-2
inactive: A549 7.52 µM | CAKI-1 6.75 µM | HCC 2998 8.85 µM | HOP-62 5.98 µM | Hs-578T 5.85 µM | IGROV-1 3.41 µM | K562 9.38 µM | M14 10.7 µM | MCF7 7.48 µM | NCI-H522 3.48 µM | OVCAR-5 11.7 µM | PC-3 7.53 µM | SF-268 9.53 µM | SK-MEL-28 11.1 µM | SK-MEL-5 5.77 µM | SR 5.33 µM | SW-620 10.8 µM | UACC-257 11 µM

CS/C(=N\C(=S)Nc1ccccc1)Nc1ccccc1
inactive: A549 16.5 µM | CAKI-1 14.6 µM | HCC 2998 21.7 µM | HOP-62 27.9 µM | IGROV-1 16.4 µM | K562 12.6 µM | M14 21.4 µM | NCI-H522 14.6 µM | OVCAR-5 23.6 µM | SF-268 25.6 µM | SK-MEL-28 15 µM | SK-MEL-5 6.01 µM | SR 15.4 µM | SW-620 23.1 µM | UACC-257 > 10 µM

C#CC(C)(C)OC(=O)C(=[N+]=[N-])C(C)=O
inactive: A549 > 10 µM | HCC 2998 > 10 µM | HOP-62 > 10 µM | Hs-578T > 10 µM | IGROV-1 > 10 µM | K562 > 10 µM | M14 > 10 µM | MCF7 > 10 µM | MDA-MB-231 > 10 µM | OVCAR-5 > 10 µM | PC-3 > 10 µM | SF-268 > 10 µM | SK-MEL-28 > 10 µM | SK-MEL-5 > 10 µM | SR > 10 µM | SW-620 > 10 µM | UACC-257 > 10 µM
